The values below come from PMC9329436, “Optimization of the 4-anilinoquin(az)oline scaffold as epidermal growth factor receptor (EGFR) inhibitors for chordoma utilizing a toxicology profiling assay platform” (Scientific Reports, 2022).

Assay type in all cases: biochemical
The target in assay [1] is 320 wild-type protein kinases (Homo sapiens, UniProt P09619). The settings on record: PDGFR-beta, singlicate. The source says: (§1) Table S4. Profiling of two compounds at two concentrations against 320 wild-type protein kinases; singlicate measurement; Residual activities (% of control).
In assay [2] the target is 320 wild-type protein kinases (Homo sapiens, UniProt Q05655). As to conditions: PKC-delta, singlicate.
Description: as §1

Assay [3] deals with 320 wild-type protein kinases (Homo sapiens, UniProt P11362). As to conditions: singlicate.
Description: as §1

Assay [4] addresses T1, 320 wild-type protein kinases (Homo sapiens, UniProt O14757).
T1 sequence (O14757 1-476): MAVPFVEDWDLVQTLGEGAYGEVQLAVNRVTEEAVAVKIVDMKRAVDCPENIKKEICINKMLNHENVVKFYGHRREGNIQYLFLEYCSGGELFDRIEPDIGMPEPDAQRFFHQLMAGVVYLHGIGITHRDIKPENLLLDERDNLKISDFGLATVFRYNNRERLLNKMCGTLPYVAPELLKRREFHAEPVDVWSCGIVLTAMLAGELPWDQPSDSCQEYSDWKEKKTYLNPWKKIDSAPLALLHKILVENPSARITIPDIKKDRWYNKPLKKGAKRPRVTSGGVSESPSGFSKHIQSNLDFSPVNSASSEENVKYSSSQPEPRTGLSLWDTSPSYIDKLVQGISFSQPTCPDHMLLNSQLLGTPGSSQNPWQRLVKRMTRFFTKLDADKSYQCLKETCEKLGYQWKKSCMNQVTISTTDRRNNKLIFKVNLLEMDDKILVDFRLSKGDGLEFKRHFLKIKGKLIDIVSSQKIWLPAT
As to conditions: singlicate.
Description: as §1

Assay [5] has as its target 320 wild-type protein kinases (Homo sapiens, UniProt P31749). As to conditions: singlicate.
Description: as §1

Assay [6] deals with 320 wild-type protein kinases (Homo sapiens, UniProt P53671). As to conditions: singlicate.
Description: as §1

Assay [7] deals with 320 wild-type protein kinases (Homo sapiens, UniProt O60566). The settings on record: BUB1B, singlicate.
Description: as §1

For assay [8], the target named is 320 wild-type protein kinases (Homo sapiens, UniProt Q15349). As to conditions: kinase RPS6KA2, singlicate.
Description: as §1

Assay [9] has as its target T2, 320 wild-type protein kinases (Homo sapiens, UniProt Q12866).
T2 sequence (Q12866 21-999): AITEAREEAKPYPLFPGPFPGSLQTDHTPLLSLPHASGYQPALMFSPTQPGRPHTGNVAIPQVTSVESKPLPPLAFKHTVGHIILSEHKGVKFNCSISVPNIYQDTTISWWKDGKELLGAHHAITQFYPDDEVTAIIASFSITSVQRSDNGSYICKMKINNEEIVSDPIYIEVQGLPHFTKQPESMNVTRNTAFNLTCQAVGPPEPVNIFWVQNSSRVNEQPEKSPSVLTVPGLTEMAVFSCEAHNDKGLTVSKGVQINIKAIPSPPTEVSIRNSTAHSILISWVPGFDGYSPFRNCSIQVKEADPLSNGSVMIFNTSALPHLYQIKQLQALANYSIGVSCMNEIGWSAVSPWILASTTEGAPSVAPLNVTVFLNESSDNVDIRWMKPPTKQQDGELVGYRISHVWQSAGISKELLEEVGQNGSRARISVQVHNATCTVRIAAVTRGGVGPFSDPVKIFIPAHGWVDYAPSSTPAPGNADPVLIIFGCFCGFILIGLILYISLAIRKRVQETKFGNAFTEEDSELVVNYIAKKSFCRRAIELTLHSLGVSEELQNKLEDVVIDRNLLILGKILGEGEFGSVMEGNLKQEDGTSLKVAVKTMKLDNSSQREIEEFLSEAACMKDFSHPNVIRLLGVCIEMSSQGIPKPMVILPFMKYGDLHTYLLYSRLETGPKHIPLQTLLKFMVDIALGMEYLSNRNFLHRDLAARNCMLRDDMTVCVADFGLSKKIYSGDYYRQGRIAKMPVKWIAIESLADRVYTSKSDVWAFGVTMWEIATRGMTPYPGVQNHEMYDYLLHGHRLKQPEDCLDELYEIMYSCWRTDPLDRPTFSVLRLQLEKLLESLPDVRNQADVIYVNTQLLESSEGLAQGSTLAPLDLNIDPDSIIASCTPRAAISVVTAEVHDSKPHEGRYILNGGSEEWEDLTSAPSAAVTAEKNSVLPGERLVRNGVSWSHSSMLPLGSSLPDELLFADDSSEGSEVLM
The settings on record: MERTK, singlicate.
Description: as §1

Assay [10] concerns the target T3, 320 wild-type protein kinases (Homo sapiens, UniProt Q9Y2U5).
T3 sequence (Q9Y2U5 1-619): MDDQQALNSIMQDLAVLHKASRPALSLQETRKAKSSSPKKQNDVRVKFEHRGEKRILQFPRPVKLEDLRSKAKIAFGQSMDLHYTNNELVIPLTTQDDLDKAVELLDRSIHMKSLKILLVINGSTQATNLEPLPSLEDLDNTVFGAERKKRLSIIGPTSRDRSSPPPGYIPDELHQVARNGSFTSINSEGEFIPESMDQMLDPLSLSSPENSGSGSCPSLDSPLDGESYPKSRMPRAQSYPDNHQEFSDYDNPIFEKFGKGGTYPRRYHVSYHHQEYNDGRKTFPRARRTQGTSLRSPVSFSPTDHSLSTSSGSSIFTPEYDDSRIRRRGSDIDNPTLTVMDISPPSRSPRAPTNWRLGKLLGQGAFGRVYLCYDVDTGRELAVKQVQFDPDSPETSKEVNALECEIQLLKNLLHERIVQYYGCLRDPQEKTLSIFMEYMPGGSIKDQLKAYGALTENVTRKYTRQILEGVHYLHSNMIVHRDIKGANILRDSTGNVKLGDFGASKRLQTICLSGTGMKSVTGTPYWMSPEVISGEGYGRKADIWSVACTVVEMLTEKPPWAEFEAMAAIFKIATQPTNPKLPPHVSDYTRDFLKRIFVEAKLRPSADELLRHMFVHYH
As to conditions: singlicate.
Description: as §1

Where two headings read alike, the source gives them in different places.

320 wild-type protein kinases (Homo sapiens, UniProt P53671), sequence (P53671 whole entry): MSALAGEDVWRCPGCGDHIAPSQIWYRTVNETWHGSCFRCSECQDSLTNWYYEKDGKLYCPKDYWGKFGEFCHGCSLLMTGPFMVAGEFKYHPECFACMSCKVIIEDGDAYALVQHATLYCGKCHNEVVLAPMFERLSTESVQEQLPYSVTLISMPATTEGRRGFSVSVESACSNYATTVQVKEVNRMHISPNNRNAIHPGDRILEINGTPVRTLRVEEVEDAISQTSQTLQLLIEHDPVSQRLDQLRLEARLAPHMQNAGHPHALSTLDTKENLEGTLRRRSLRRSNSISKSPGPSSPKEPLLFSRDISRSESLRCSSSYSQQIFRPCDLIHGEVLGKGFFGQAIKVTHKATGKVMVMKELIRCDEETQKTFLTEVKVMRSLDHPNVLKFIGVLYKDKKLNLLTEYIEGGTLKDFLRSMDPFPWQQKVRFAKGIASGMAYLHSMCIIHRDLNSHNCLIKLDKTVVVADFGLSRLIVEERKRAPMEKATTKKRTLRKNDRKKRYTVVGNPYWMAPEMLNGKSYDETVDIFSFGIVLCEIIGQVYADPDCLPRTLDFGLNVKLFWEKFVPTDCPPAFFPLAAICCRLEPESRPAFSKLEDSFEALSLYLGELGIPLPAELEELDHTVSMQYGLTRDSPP
320 wild-type protein kinases (Homo sapiens, UniProt P31749), sequence (P31749 whole entry): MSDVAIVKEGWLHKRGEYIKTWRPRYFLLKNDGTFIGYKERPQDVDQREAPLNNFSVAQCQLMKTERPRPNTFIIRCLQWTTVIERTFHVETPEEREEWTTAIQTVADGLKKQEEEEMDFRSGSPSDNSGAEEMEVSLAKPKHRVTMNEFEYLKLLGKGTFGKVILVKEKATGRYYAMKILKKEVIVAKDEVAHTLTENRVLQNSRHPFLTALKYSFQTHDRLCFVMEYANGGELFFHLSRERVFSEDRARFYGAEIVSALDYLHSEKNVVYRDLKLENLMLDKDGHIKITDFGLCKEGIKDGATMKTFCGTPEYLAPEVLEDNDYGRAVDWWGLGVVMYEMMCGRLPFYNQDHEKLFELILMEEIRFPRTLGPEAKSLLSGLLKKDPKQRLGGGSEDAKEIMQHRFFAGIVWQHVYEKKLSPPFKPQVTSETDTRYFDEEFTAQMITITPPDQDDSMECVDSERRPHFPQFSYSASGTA
320 wild-type protein kinases (Homo sapiens, UniProt P09619), sequence (P09619 33-1106): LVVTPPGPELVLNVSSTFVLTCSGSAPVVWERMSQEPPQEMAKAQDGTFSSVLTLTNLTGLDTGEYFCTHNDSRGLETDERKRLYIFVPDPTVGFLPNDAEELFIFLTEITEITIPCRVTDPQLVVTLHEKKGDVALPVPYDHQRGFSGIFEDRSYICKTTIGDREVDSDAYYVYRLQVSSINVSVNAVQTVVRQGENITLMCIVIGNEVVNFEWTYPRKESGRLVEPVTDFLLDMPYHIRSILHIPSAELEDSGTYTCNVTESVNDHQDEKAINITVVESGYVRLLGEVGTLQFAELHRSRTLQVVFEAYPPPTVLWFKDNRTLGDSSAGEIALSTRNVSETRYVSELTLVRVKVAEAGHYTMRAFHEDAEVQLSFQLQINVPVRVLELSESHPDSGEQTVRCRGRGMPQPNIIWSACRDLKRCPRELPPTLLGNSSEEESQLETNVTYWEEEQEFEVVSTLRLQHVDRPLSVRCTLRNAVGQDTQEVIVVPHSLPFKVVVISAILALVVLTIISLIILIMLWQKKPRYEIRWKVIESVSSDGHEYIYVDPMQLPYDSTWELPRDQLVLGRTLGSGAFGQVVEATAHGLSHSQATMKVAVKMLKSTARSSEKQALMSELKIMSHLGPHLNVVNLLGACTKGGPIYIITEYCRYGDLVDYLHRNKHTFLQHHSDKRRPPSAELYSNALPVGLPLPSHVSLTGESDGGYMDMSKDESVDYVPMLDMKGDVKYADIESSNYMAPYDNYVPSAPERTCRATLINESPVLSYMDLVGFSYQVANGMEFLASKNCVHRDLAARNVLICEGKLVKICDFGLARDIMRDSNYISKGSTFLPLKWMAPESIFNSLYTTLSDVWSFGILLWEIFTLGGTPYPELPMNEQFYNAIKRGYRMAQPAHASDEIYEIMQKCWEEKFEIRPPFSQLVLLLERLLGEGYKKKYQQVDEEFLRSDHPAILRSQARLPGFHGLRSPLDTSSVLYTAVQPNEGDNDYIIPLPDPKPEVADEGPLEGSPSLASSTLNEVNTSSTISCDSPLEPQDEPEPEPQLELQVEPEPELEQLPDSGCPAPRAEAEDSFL
320 wild-type protein kinases (Homo sapiens, UniProt Q15349), sequence (Q15349 whole entry): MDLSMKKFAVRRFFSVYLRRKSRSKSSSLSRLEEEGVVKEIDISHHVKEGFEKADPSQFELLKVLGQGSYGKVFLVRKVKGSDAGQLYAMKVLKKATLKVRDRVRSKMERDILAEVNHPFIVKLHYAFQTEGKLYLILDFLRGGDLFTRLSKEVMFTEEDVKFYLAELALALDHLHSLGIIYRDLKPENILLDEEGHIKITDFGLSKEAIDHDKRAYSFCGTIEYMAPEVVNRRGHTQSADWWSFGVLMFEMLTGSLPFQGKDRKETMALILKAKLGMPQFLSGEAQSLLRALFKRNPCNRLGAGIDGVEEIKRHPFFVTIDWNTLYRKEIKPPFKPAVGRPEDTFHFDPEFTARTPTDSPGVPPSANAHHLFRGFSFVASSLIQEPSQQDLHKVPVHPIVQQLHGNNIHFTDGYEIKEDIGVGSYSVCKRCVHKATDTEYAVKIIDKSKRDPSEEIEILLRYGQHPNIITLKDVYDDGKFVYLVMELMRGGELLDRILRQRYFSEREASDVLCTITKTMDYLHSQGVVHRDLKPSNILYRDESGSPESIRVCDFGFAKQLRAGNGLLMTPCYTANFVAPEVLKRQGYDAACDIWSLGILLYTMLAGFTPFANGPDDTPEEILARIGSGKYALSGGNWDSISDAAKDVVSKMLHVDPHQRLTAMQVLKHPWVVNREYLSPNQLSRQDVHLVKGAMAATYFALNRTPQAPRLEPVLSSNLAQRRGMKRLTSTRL
320 wild-type protein kinases (Homo sapiens, UniProt P11362), sequence (P11362 22-822): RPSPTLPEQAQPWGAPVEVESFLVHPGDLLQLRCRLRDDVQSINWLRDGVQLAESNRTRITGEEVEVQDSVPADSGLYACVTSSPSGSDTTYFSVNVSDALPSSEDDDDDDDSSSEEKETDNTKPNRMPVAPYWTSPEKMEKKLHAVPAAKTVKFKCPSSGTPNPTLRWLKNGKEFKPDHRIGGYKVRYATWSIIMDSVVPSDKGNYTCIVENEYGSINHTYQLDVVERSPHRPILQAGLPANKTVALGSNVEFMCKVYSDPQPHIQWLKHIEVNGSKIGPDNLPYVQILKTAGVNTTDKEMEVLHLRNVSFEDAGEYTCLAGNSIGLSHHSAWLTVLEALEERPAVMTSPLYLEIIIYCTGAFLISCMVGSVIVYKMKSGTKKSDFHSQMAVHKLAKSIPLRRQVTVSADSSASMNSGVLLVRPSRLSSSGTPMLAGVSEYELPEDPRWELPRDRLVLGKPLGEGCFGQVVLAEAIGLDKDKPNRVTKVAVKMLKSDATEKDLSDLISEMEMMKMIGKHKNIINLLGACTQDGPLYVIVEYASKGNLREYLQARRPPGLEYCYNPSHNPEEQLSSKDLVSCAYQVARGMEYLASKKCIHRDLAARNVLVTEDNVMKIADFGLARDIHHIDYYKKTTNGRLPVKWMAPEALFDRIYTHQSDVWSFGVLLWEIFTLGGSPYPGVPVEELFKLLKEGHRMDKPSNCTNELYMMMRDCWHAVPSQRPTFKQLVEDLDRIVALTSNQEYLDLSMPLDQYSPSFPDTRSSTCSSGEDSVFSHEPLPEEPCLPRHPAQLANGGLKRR
320 wild-type protein kinases (Homo sapiens, UniProt O60566), sequence (O60566 whole entry): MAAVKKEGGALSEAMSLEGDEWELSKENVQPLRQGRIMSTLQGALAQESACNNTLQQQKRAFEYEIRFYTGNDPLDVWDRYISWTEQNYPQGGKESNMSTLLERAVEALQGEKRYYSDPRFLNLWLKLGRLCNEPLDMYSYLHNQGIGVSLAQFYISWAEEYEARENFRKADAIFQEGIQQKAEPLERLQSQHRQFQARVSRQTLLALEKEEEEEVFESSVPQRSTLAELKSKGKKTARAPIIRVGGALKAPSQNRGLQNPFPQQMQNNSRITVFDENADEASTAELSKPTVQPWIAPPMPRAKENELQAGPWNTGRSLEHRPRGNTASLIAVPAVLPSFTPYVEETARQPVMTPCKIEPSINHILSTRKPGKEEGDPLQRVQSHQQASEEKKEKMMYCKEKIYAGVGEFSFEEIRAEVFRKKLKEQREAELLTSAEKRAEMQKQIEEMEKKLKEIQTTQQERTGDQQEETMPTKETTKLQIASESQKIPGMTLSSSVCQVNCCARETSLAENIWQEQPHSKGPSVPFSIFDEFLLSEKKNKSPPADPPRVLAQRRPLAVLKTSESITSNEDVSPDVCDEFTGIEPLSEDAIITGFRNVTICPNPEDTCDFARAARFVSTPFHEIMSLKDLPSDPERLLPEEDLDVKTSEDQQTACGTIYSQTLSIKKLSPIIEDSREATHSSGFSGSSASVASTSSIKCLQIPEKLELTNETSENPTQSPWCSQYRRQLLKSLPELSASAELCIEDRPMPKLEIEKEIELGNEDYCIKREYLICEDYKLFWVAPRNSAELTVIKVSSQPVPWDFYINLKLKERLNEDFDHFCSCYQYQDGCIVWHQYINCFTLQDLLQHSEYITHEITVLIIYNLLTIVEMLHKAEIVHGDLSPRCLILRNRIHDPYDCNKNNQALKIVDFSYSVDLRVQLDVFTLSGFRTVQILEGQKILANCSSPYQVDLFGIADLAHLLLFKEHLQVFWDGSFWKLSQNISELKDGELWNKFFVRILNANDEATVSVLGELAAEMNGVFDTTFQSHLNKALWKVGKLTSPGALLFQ

Regarding `C#Cc1cc(Nc2ncnc3cc(I)ccc23)ccc1Cl` [Compound 41], the Residual activity in assay [1] (1.0E-06 M) is on record as 98 % of control; in [1] (1.0E-07 M) it was 114 % of control; in assay [2] (1.0E-06 M), 88 % of control; in assay [2] (1.0E-07 M) it was 92 % of control; in assay [3] (FGF-R1, 1.0E-06 M), 85 % of control; in [3] (FGF-R1, 1.0E-07 M), 107 % of control. Also, the Residual activity in assay [4] (CHK1, 1.0E-06 M) is reported as 85 % of control; in [4] (CHK1, 1.0E-07 M) it was 94 % of control; in assay [5] (AKT1 aa106-480, 1.0E-06 M) it was 94 % of control; in [5] (AKT1 aa106-480, 1.0E-07 M), 96 % of control; in assay [6] (LIMK2, 1.0E-06 M) it was 100 % of control; in [6] (LIMK2, 1.0E-07 M), 92 % of control. The Residual activity is 131 % of control in assay [7] (1.0E-06 M); 122 % of control in assay [7] (1.0E-07 M); 102 % of control in [9] (1.0E-06 M); 103 % of control in assay [9] (1.0E-07 M); 93 % of control in [10] (MEKK2, 1.0E-06 M); 112 % of control in [10] (MEKK2, 1.0E-07 M). The “Residual activity, RPS6KA2” value in assay [8] (assay conc. 1.0E-06 M) is 94 % of control; in [8] (assay conc. 1.0E-07 M), 97 % of control.

As for `C#Cc1cc(Nc2ncnc3cc(OC)c(OC)cc23)ccc1Cl` [Compound 45], the Residual activity is reported as 95 % of control in [1] (1.0E-06 M); 107 % of control in assay [1] (1.0E-07 M); 89 % of control in assay [2] (1.0E-06 M); 115 % of control in assay [2] (1.0E-07 M); 92 % of control in [3] (FGF-R1, 1.0E-06 M); 100 % of control in assay [3] (FGF-R1, 1.0E-07 M). Besides, the Residual activity is listed as 74 % of control in assay [4] (CHK1, 1.0E-06 M); 94 % of control in assay [4] (CHK1, 1.0E-07 M); 101 % of control in [5] (AKT1 aa106-480, 1.0E-06 M); 100 % of control in assay [5] (AKT1 aa106-480, 1.0E-07 M); 89 % of control in assay [6] (LIMK2, 1.0E-06 M); 94 % of control in assay [6] (LIMK2, 1.0E-07 M). For the same molecule, the Residual activity in assay [7] (1.0E-06 M) was 115 % of control; in assay [7] (1.0E-07 M), 137 % of control; in assay [9] (1.0E-06 M) it was 83 % of control; in assay [9] (1.0E-07 M), 97 % of control; in [10] (MEKK2, 1.0E-06 M), 107 % of control; in [10] (MEKK2, 1.0E-07 M) it was 120 % of control. Further, the figures for the “Residual activity, RPS6KA2” value in assay [8] (assay conc. 1.0E-06 M) and in [8] (assay conc. 1.0E-07 M) were 86 % of control and 100 % of control, respectively.
